Experimental data as given in patent publication US10806785B2, “Immunomodulator compounds and methods of use” (Incyte Corporation, priority 2016, dated 2020).
Residues, ends and D or L forms follow the SMILES beside them.

Target: PD-1/PD-L1 (Homo sapiens (Human), UniProt Q9NZQ7)
Assay: PD-1/PD-L1 binding assay (Alphascreen)
Description: Binding assays were conducted in a low volume white 384-well polystyrene plate in a final volume of 20 μL. Compounds to be analyzed were first serially diluted in DMSO and added to the plate wells before the addition of other reaction components. The final concentration of DMSO in the assay was 1%. The assay was carried out at 25° C. in the PBS buffer (pH 7.4) with 0.05% Tween-20 and 0.1% BSA. Recombinant human PD-L1 protein (19-238) with a His-tag at the C-terminus was purchased from AcroBiosystems (PD1-H5229). Recombinant human PD-1 protein (25-167) with Fc tag at the C-terminus was also from AcroBiosystems (PD1-H5257). PD-L1 and PD-1 proteins were diluted in the assay buffer (final concentration −0.67 and 0.20 nM respectively) and 10 μL was added to the plate well. Plates were centrifuged and proteins were preincubated with compounds for 40 minutes. The incubation was followed by the addition of 10 μL of assay buffer supplemented with Alphascreen Ni chelate donor beads (PerkinElmer-AS101D) and Protein A Acceptor beads (PerkinElmer-6760137) at final concentration 2.5 μg/mL under reduced light. After plate sealing, the plate was incubated in the dark at room temperature for 120 minutes before reading on a PHERAstar FS plate reader (BMG Labtech). […]

Sequence of PD-1/PD-L1 (Q9NZQ7 19-238): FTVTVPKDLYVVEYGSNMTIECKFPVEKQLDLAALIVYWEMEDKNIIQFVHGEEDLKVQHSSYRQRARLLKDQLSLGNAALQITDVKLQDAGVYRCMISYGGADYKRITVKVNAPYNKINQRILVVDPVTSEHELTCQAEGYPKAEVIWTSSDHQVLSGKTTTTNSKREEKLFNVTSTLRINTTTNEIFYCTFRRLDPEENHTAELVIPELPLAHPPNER

- IC50: > 1 nM
SMILES: CCCC[C@H]1C(=O)N(C)CC(=O)N[C@@H](CC(=O)O)C(=O)N[C@@H](C(C)C)C(=O)N(C)[C@@H](Cc2ccccc2)C(=O)N[C@@H](Cc2ccc(O)cc2)C(=O)N(C)CC(=O)N[C@@H](Cc2c[nH]c3ccccc23)C(=O)N[C@@H](Cc2ccc(O)cc2)C(=O)N[C@@H](CC(C)C)C(=O)N[C@H](C(=O)NCC(N)=O)CSCC(=O)N[C@@H](Cc2ccccc2)C(=O)N(C)[C@@H](Cc2ccccc2)C(=O)N1C [Cpd 27] (HELM PEPTIDE1{[O=C(C[*:3])[*:2]].F.[meF].[CCCC[C@@H](C(=O)[*:2])N(C)[*:1]].[Sar].D.V.[meF].Y.[Sar].W.Y.L.C.G.[am]}$PEPTIDE1,PEPTIDE1,1:R3-14:R3$$$V2.0)
